# Source: PubChem BioAssay AID1963445 (Molecular Pharmacology Branch, DTP, NCI, 2024)
# System: MCF7 complex spheroid growth, % test/control
# Assay: Anticancer human tumor MCF7 cell line growth inhibition [Asc];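 further: spheroids exposed to compounds for 7 days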;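 on viability, T/C: 100% = DMSO vehicle control wells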
# Details: for IC50: curve of first compound; for viability, T/C: stronger effect = lower value
# Outline: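 Complex spheroids combining tumor cells with HUVEC endothelial cells and human MSCs, at 37 degrees C, 5% CO2; agents tested alone or combined, half-log dilutions from at or near clinical Cmax, or 10 microM if Cmax unknown.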
structure (smiles),measurement,setting,value
O=C(c1ccc(F)c(F)c1Nc1ccc(I)cc1F)N1CC(O)([C@@H]2CCCCN2)C1 + CCN1C(C(=O)NC23CCC(C(=O)O)(CC2)CC3)C(c2cccc(Cl)c2F)C2(C(=O)Nc3cc(Cl)ccc32)C12CCCCC2,IC50,second compound 0.00949 µM,> 1000 nM
same,IC50,second compound 0.03 µM,> 1000 nM
same,IC50,second compound 0.0949 µM,< 3.16 nM
same,IC50,second compound 0.3 µM,< 3.16 nM
same,IC50,second compound 0.949 µM,< 3.16 nM
same,IC50,second compound 3 µM,< 3.16 nM
same,"viability, T/C","second compound 0.00949 µM, first compound 0.00316 µM",104%
same,"viability, T/C","second compound 0.00949 µM, first compound 0.01 µM",101%
same,"viability, T/C","second compound 0.00949 µM, first compound 0.0316 µM",111%
same,"viability, T/C","second compound 0.00949 µM, first compound 0.1 µM",97.2%
same,"viability, T/C","second compound 0.00949 µM, first compound 0.316 µM",94.9%
same,"viability, T/C","second compound 0.00949 µM, first compound 1 µM",100%
same,"viability, T/C","second compound 0.03 µM, first compound 0.00316 µM",105%
same,"viability, T/C","second compound 0.03 µM, first compound 0.01 µM",99.4%
same,"viability, T/C","second compound 0.03 µM, first compound 0.0316 µM",93.9%
same,"viability, T/C","second compound 0.03 µM, first compound 0.1 µM",96.6%
same,"viability, T/C","second compound 0.03 µM, first compound 0.316 µM",81.4%
same,"viability, T/C","second compound 0.03 µM, first compound 1 µM",63.5%
same,"viability, T/C","second compound 0.0949 µM, first compound 0.00316 µM",50.6%
same,"viability, T/C","second compound 0.0949 µM, first compound 0.01 µM",44%
same,"viability, T/C","second compound 0.0949 µM, first compound 0.0316 µM",46.5%
same,"viability, T/C","second compound 0.0949 µM, first compound 0.1 µM",44.4%
same,"viability, T/C","second compound 0.0949 µM, first compound 0.316 µM",44.8%
same,"viability, T/C","second compound 0.0949 µM, first compound 1 µM",38.7%
same,"viability, T/C","second compound 0.3 µM, first compound 0.00316 µM",32.1%
same,"viability, T/C","second compound 0.3 µM, first compound 0.01 µM",28%
same,"viability, T/C","second compound 0.3 µM, first compound 0.0316 µM",26.7%
same,"viability, T/C","second compound 0.3 µM, first compound 0.1 µM",26.6%
same,"viability, T/C","second compound 0.3 µM, first compound 0.316 µM",33%
same,"viability, T/C","second compound 0.3 µM, first compound 1 µM",24.5%
same,"viability, T/C","second compound 0.949 µM, first compound 0.00316 µM",16.4%
same,"viability, T/C","second compound 0.949 µM, first compound 0.01 µM",19.6%
same,"viability, T/C","second compound 0.949 µM, first compound 0.0316 µM",14.8%
same,"viability, T/C","second compound 0.949 µM, first compound 0.1 µM",15.3%
same,"viability, T/C","second compound 0.949 µM, first compound 0.316 µM",13.4%
same,"viability, T/C","second compound 0.949 µM, first compound 1 µM",13.3%
same,"viability, T/C","second compound 3 µM, first compound 0.00316 µM",14.3%
same,"viability, T/C","second compound 3 µM, first compound 0.01 µM",14.3%
same,"viability, T/C","second compound 3 µM, first compound 0.0316 µM",9.2%
same,"viability, T/C","second compound 3 µM, first compound 0.1 µM",12.3%
same,"viability, T/C","second compound 3 µM, first compound 0.316 µM",14.2%
same,"viability, T/C","second compound 3 µM, first compound 1 µM",11%
